According to ChEMBL document CHEMBL3044945, “Synthesis of 1,3,5-trisubstituted pyrazoline nucleus containing compounds and screening for antimicrobial activity” (2012):
Values after ≈ are worked out from the molar mass of the structure shown.

Experiments:
Assay type in all cases: functional
Penicillium chrysogenum [1] = experiment: Antifungal activity against Penicillium chrysogenum MTCC 161 at 250 ug/ml after 48 hr by cup-plate method; details: MTCC 161, 48 h, read-out: DIZ
Aspergillus niger [2] = experiment: Antifungal activity against Aspergillus niger MTCC 2546 at 1000 ug/ml after 48 hr by cup-plate method; details: MTCC 2546, 48 h, read-out: DIZ
Pseudomonas aeruginosa [3] = experiment: Antibacterial activity against Pseudomonas aeruginosa MTCC 424 at 750 ug/ml after 48 hr by cup-plate method; details: MTCC 424, 48 h, read-out: DIZ
Bacillus pumilus [4] = experiment: Antibacterial activity against Bacillus pumilus MTCC 1456 at 250 ug/ml after 48 hr by cup-plate method; details: MTCC 1456, 48 h, read-out: DIZ
Micrococcus luteus [5] = experiment: Antibacterial activity against Micrococcus luteus MTCC 1538 at 1000 ug/ml after 48 hr by cup-plate method; details: MTCC 1538, 48 h, read-out: DIZ
Bacillus pumilus [6] = experiment: Antibacterial activity against Bacillus pumilus MTCC 1456 after 24 to 48 hr by tube dilution method
Pseudomonas fluorescens [7] = experiment: Antibacterial activity against Pseudomonas fluorescens MTCC 2421 at 750 ug/ml after 48 hr by cup-plate method; details: MTCC 2421, 48 h, read-out: DIZ
Pseudomonas fluorescens [8] = experiment: Antibacterial activity against Pseudomonas fluorescens MTCC 2421 at 1000 ug/ml after 48 hr by cup-plate method; details: MTCC 2421, 48 h, read-out: DIZ
Bacillus subtilis [9] = experiment: Antibacterial activity against Bacillus subtilis MTCC 441 at 1000 ug/ml after 48 hr by cup-plate method; details: MTCC 441, 48 h, read-out: DIZ
Penicillium chrysogenum [10] = experiment: Antifungal activity against Penicillium chrysogenum MTCC 161 at 500 ug/ml after 48 hr by cup-plate method; details: MTCC 161, 48 h, read-out: DIZ
Pseudomonas fluorescens [11] = experiment: Antibacterial activity against Pseudomonas fluorescens MTCC 2421 at 100 ug/ml after 48 hr by cup-plate method; details: MTCC 2421, 48 h, read-out: DIZ
Escherichia coli [12] = experiment: Antibacterial activity against Escherichia coli MTCC 1573 at 100 ug/ml after 48 hr by cup-plate method; details: MTCC 1573, 48 h, read-out: DIZ
Bacillus subtilis [13] = experiment: Antibacterial activity against Bacillus subtilis MTCC 441 at 500 ug/ml after 48 hr by cup-plate method; details: MTCC 441, 48 h, read-out: DIZ
Pseudomonas fluorescens [14] = experiment: Antibacterial activity against Pseudomonas fluorescens MTCC 2421 at 1250 ug/ml after 48 hr by cup-plate method; details: MTCC 2421, 48 h, read-out: DIZ
Micrococcus luteus [15] = experiment: Antibacterial activity against Micrococcus luteus MTCC 1538 at 250 ug/ml after 48 hr by cup-plate method; details: MTCC 1538, 48 h, read-out: DIZ
Pseudomonas aeruginosa [16] = experiment: Antibacterial activity against Pseudomonas aeruginosa MTCC 424 at 500 ug/ml after 48 hr by cup-plate method; details: MTCC 424, 48 h, read-out: DIZ
Bacillus pumilus [17] = experiment: Antibacterial activity against Bacillus pumilus MTCC 1456 at 500 ug/ml after 48 hr by cup-plate method; details: MTCC 1456, 48 h, read-out: DIZ
Micrococcus luteus [18] = experiment: Antibacterial activity against Micrococcus luteus MTCC 1538 at 1250 ug/ml after 48 hr by cup-plate method; details: MTCC 1538, 48 h, read-out: DIZ
Staphylococcus aureus [19] = experiment: Antibacterial activity against Staphylococcus aureus MTCC 1430 at 1000 ug/ml after 48 hr by cup-plate method; details: MTCC 1430, 48 h, read-out: DIZ
Pseudomonas aeruginosa [20] = experiment: Antibacterial activity against Pseudomonas aeruginosa MTCC 424 after 24 to 48 hr by tube dilution method
Pseudomonas aeruginosa [21] = experiment: Antibacterial activity against Pseudomonas aeruginosa MTCC 424 at 100 ug/ml after 48 hr by cup-plate method; details: MTCC 424, 48 h, read-out: DIZ
Pseudomonas fluorescens [22] = experiment: Antibacterial activity against Pseudomonas fluorescens MTCC 2421 at 500 ug/ml after 48 hr by cup-plate method; details: MTCC 2421, 48 h, read-out: DIZ
Escherichia coli [23] = experiment: Antibacterial activity against Escherichia coli MTCC 1573 at 1250 ug/ml after 48 hr by cup-plate method; details: MTCC 1573, 48 h, read-out: DIZ
Escherichia coli [24] = experiment: Antibacterial activity against Escherichia coli MTCC 1573 at 1000 ug/ml after 48 hr by cup-plate method; details: MTCC 1573, 48 h, read-out: DIZ
Bacillus pumilus [25] = experiment: Antibacterial activity against Bacillus pumilus MTCC 1456 at 1250 ug/ml after 48 hr by cup-plate method; details: MTCC 1456, 48 h, read-out: DIZ
Escherichia coli [26] = experiment: Antibacterial activity against Escherichia coli MTCC 1573 at 750 ug/ml after 48 hr by cup-plate method; details: MTCC 1573, 48 h, read-out: DIZ
Penicillium chrysogenum [27] = experiment: Antifungal activity against Penicillium chrysogenum MTCC 161 at 1250 ug/ml after 48 hr by cup-plate method; details: MTCC 161, 48 h, read-out: DIZ
Aspergillus niger [28] = experiment: Antifungal activity against Aspergillus niger MTCC 2546 at 500 ug/ml after 48 hr by cup-plate method; details: MTCC 2546, 48 h, read-out: DIZ
Penicillium chrysogenum [29] = experiment: Antifungal activity against Penicillium chrysogenum MTCC 161 at 100 ug/ml after 48 hr by cup-plate method; details: MTCC 161, 48 h, read-out: DIZ
Bacillus subtilis [30] = experiment: Antibacterial activity against Bacillus subtilis MTCC 441 at 1250 ug/ml after 48 hr by cup-plate method; details: MTCC 441, 48 h, read-out: DIZ
Bacillus pumilus [31] = experiment: Antibacterial activity against Bacillus pumilus MTCC 1456 at 100 ug/ml after 48 hr by cup-plate method; details: MTCC 1456, 48 h, read-out: DIZ
Bacillus subtilis [32] = experiment: Antibacterial activity against Bacillus subtilis MTCC 441 at 100 ug/ml after 48 hr by cup-plate method; details: MTCC 441, 48 h, read-out: DIZ
Escherichia coli [33] = experiment: Antibacterial activity against Escherichia coli MTCC 1573 after 24 to 48 hr by tube dilution method
Penicillium chrysogenum [34] = experiment: Antifungal activity against Penicillium chrysogenum MTCC 161 at 1000 ug/ml after 48 hr by cup-plate method; details: MTCC 161, 48 h, read-out: DIZ
Pseudomonas aeruginosa [35] = experiment: Antibacterial activity against Pseudomonas aeruginosa MTCC 424 at 1250 ug/ml after 48 hr by cup-plate method; details: MTCC 424, 48 h, read-out: DIZ
Staphylococcus aureus [36] = experiment: Antibacterial activity against Staphylococcus aureus MTCC 1430 at 250 ug/ml after 48 hr by cup-plate method; details: MTCC 1430, 48 h, read-out: DIZ
Aspergillus niger [37] = experiment: Antifungal activity against Aspergillus niger MTCC 2546 at 1250 ug/ml after 48 hr by cup-plate method; details: MTCC 2546, 48 h, read-out: DIZ
Micrococcus luteus [38] = experiment: Antibacterial activity against Micrococcus luteus MTCC 1538 at 500 ug/ml after 48 hr by cup-plate method; details: MTCC 1538, 48 h, read-out: DIZ
Pseudomonas aeruginosa [39] = experiment: Antibacterial activity against Pseudomonas aeruginosa MTCC 424 at 1000 ug/ml after 48 hr by cup-plate method; details: MTCC 424, 48 h, read-out: DIZ
Bacillus subtilis [40] = experiment: Antibacterial activity against Bacillus subtilis MTCC 441 at 750 ug/ml after 48 hr by cup-plate method; details: MTCC 441, 48 h, read-out: DIZ
Staphylococcus aureus [41] = experiment: Antibacterial activity against Staphylococcus aureus MTCC 1430 at 750 ug/ml after 48 hr by cup-plate method; details: MTCC 1430, 48 h, read-out: DIZ
Penicillium chrysogenum [42] = experiment: Antifungal activity against Penicillium chrysogenum MTCC 161 at 750 ug/ml after 48 hr by cup-plate method; details: MTCC 161, 48 h, read-out: DIZ
Micrococcus luteus [43] = experiment: Antibacterial activity against Micrococcus luteus MTCC 1538 at 750 ug/ml after 48 hr by cup-plate method; details: MTCC 1538, 48 h, read-out: DIZ
Staphylococcus aureus [44] = experiment: Antibacterial activity against Staphylococcus aureus MTCC 1430 after 24 to 48 hr by tube dilution method
Staphylococcus aureus [45] = experiment: Antibacterial activity against Staphylococcus aureus MTCC 1430 at 500 ug/ml after 48 hr by cup-plate method; details: MTCC 1430, 48 h, read-out: DIZ

## O=[N+]([O-])c1ccc(C2CC(c3cccc4ccccc34)=NN2c2ccccc2[N+](=O)[O-])cc1 (stereo not given)
Penicillium chrysogenum [1]
  zone of inhibition at 250 µg/mL: 14 mm
Aspergillus niger [2]
  zone of inhibition at 1000 µg/mL: 23 mm
Pseudomonas aeruginosa [3]
  zone of inhibition at 750 µg/mL: 16 mm
Bacillus pumilus [4]
  zone of inhibition at 250 µg/mL: 11 mm
Micrococcus luteus [5]
  zone of inhibition at 1000 µg/mL: 15 mm
Bacillus pumilus [6]
  MIC: 30 µg/mL (≈ 68.4 µM)
Pseudomonas fluorescens [7]
  zone of inhibition at 750 µg/mL: 18 mm
Pseudomonas fluorescens [8]
  zone of inhibition at 1000 µg/mL: 21 mm
Bacillus subtilis [9]
  zone of inhibition at 1000 µg/mL: 16 mm
Penicillium chrysogenum [10]
  zone of inhibition at 500 µg/mL: 15 mm
Pseudomonas fluorescens [11]
  zone of inhibition at 100 µg/mL: 10 mm
Escherichia coli [12]
  zone of inhibition at 100 µg/mL: 9 mm
Bacillus subtilis [13]
  zone of inhibition at 500 µg/mL: 14 mm
Pseudomonas fluorescens [14]
  zone of inhibition at 1250 µg/mL: 24 mm
Micrococcus luteus [15]
  zone of inhibition at 250 µg/mL: 8 mm
Pseudomonas aeruginosa [16]
  zone of inhibition at 500 µg/mL: 15 mm
Bacillus pumilus [17]
  zone of inhibition at 500 µg/mL: 12 mm
Micrococcus luteus [18]
  zone of inhibition at 1250 µg/mL: 17 mm
Staphylococcus aureus [19]
  zone of inhibition at 1000 µg/mL: 13 mm
Pseudomonas aeruginosa [20]
  MIC: 150 µg/mL (≈ 342 µM)
Pseudomonas aeruginosa [21]
  zone of inhibition at 100 µg/mL: 13 mm
Pseudomonas fluorescens [22]
  zone of inhibition at 500 µg/mL: 13 mm
Escherichia coli [23]
  zone of inhibition at 1250 µg/mL: 20 mm
Escherichia coli [24]
  zone of inhibition at 1000 µg/mL: 17 mm
Bacillus pumilus [25]
  zone of inhibition at 1250 µg/mL: 25 mm
Escherichia coli [26]
  zone of inhibition at 750 µg/mL: 13 mm
Penicillium chrysogenum [27]
  zone of inhibition at 1250 µg/mL: 26 mm
Aspergillus niger [28]
  zone of inhibition at 500 µg/mL: 12 mm
Penicillium chrysogenum [29]
  zone of inhibition at 100 µg/mL: 13 mm
Bacillus subtilis [30]
  zone of inhibition at 1250 µg/mL: 17 mm
Bacillus pumilus [31]
  zone of inhibition at 100 µg/mL: 10 mm
Bacillus subtilis [32]
  zone of inhibition at 100 µg/mL: 12 mm
Escherichia coli [33]
  MIC: 30 µg/mL (≈ 68.4 µM)
Penicillium chrysogenum [34]
  zone of inhibition at 1000 µg/mL: 24 mm
Pseudomonas aeruginosa [35]
  zone of inhibition at 1250 µg/mL: 18 mm
Staphylococcus aureus [36]
  zone of inhibition at 250 µg/mL: 9 mm
Aspergillus niger [37]
  zone of inhibition at 1250 µg/mL: 25 mm
Micrococcus luteus [38]
  zone of inhibition at 500 µg/mL: 9 mm
Pseudomonas aeruginosa [39]
  zone of inhibition at 1000 µg/mL: 17 mm
Bacillus subtilis [40]
  zone of inhibition at 750 µg/mL: 15 mm
Staphylococcus aureus [41]
  zone of inhibition at 750 µg/mL: 12 mm
Penicillium chrysogenum [42]
  zone of inhibition at 750 µg/mL: 20 mm
Micrococcus luteus [43]
  zone of inhibition at 750 µg/mL: 13 mm
Staphylococcus aureus [44]
  MIC: 50 µg/mL (≈ 114 µM)
Staphylococcus aureus [45]
  zone of inhibition at 500 µg/mL: 10 mm
